# According to patent US8999669B2, “Detection and visualization of the cell cycle in living cells” (Ludwig-Maximilians Universitat München, priority 2009, dated 2015):
# Tested on: HeLa cells
# Experiment: mitosis assay with HeLa cell-line stably expressing PCNA3p16-GFP (clone 9.6)
# Type: cell-based, human
# Settings: 0.1 μg/ml, 13 h time series, 30 min intervals
# Experimental: HeLa cell-lines stably expressing PCNA3p16-GFP (clone 9.6; amino acid sequence of SEQ ID NO: 2 fused to GFP) were seeded at 50% confluency in live cell imaging chamber (ibidi μ-Slide 8 well). After incubation over night, normal growth medium (DMEM+10% FCS) was replaced with CO2 adapted live-cell medium (DMEM without phenol red+10% FCS+25 mM Hepes Buffer). Subsequently the imaging slide was placed on an INCell Analyzer 1000 (GE Healthcare) high content microscope equipped with an environmental control chamber, adjusted to 37° C. and 5% CO2. Images were acquired with an 20X/0.45 NA air objective using the appropriate filterset for the fluorescent protein GFP (HQ480—40X/HQ535—50M) and an exposure time of 750 ms. For the live cell imaging 15 fields of view per well were selected and a 13 hour time series started with time intervals of 30 min. After the first time point 0.1 μg/ml Colcemid was added directly to the medium of one well; control cells were left untreated (FIG. 11A). Colcemid is a mitotic inhibitor drug such as Colchicine, which depolymerises microtubules and limits microtubule formation (inactivates spindle fibre formation), thus arresting cells in metaphase.
# The acquired data set was analyzed with the automated image evaluation and quantification program INCell workstation. […] The amount of mitotic cells per time point was counted and evaluated.
smiles,measurement,value
"CN[C@H]1CCc2cc(OC)c(OC)c(OC)c2-c2ccc(OC)c(=O)cc21 [colcemid, Colcemid]",mitotic cells in treated cell population,increase of mitotic cells
